{"source": "patent US12428651B2", "about": "“Transcription factors to improve resistance to environmental stress in plants” (Board of Trustees of Michigan State University, priority 2016, dated 2025)", "key": {"Arabidopsis": {"system": "Arabidopsis", "test": "Resistance to 5-methyl tryptophan (5-MT) of transgenic Arabidopsis overexpressing MYC transcription factors", "format": "in vivo, Arabidopsis thaliana", "details": "for 5-MT resistance: overexpression from the 35S promoter, phyB mutant background, 50 μM 5-methyl-tryptophan, 3 weeks, preliminary results", "method": "Functional analysis of these and other MYC^D transcription factors in planta was performed by overexpressing the transcription factors in Arabidopsis with subsequent testing of the resulting transgenic lines for increased resistance to 5-methyl tryptophan (5-MT), a toxic analog of the amino acid tryptophan."}, "JAZ proteins": {"system": "JAZ proteins", "details": "literature (Goossens et al., 2015; Smolen et al., 2002); cited from earlier work"}, "phyB-9 mutant plants": {"system": "phyB-9 mutant plants", "test": "Primary root length in the presence of 15 μM 5-MT, phyB-9 plants overexpressing MYC2 variants", "format": "in vivo, Arabidopsis thaliana", "details": "14-day-old seedlings, overexpression in phyB-9, normalized to the same genotype without 5-MT", "method": "Primary root length in the presence of 15 μM 5-MT was evaluated for 14-day-old seedlings of non-transgenic (NT) phyB-9 mutant plants or phyB-9 mutant plants that overexpressed either wild-type (WT) MYC2 or a MYC2^D105N/E165K mutant allele that harbors two point mutations (D105N and E165K) that prevent JAZ binding. Primary root length was determined as the root length of a given genotype grown in the presence of 15 μM 5-MT normalized to the root length of the same genotype grown in the absence of 5-MT."}, "JAZ10.4": {"molecular_target": "T1, JAZ10.4 (Arabidopsis thaliana, UniProt Q93ZM9)", "T1 construct": "expressed in transfected cells; host or cells: yeast (two-hybrid)", "T1 sequence (Q93ZM9 1-167 isoform Q93ZM9-3)": "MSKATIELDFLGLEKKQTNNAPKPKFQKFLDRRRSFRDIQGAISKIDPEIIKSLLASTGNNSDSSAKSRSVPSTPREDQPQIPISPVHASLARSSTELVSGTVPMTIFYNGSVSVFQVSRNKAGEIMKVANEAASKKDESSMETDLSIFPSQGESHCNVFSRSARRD", "test": "Yeast two-hybrid analysis of JAZ10.4 (bait) interaction with wild-type MYC3 and MYC3 point mutants (prey)", "format": "binding", "details": "JAZ10.4 bait (CMID, no Jas motif), MYC3 variant prey", "method": "The structural information from the MYC3-CMID complex was used to generate site-directed mutants of MYC3 that have reduced interaction with the JAZ10.4 splice variant, which contains a CMID but not a Jas motif (Chung and Howe 2009). Several promising mutants were made.\n(§1) The interactions of mutants MYC3^L152A and MYC3^E148A/M155A with JAZ10.4 and MED25 was evaluated using yeast two-hybrid analyses to visualize MED25 and JAZ10.4 (bait) interactions with wild-type MYC3 and MYC3 point mutants (prey)."}, "MED25": {"molecular_target": "T2, MED25 (Arabidopsis thaliana, UniProt Q7XYY2)", "T2 construct": "expressed in transfected cells; host or cells: yeast (two-hybrid)", "T2 sequence (Q7XYY2 1-836)": "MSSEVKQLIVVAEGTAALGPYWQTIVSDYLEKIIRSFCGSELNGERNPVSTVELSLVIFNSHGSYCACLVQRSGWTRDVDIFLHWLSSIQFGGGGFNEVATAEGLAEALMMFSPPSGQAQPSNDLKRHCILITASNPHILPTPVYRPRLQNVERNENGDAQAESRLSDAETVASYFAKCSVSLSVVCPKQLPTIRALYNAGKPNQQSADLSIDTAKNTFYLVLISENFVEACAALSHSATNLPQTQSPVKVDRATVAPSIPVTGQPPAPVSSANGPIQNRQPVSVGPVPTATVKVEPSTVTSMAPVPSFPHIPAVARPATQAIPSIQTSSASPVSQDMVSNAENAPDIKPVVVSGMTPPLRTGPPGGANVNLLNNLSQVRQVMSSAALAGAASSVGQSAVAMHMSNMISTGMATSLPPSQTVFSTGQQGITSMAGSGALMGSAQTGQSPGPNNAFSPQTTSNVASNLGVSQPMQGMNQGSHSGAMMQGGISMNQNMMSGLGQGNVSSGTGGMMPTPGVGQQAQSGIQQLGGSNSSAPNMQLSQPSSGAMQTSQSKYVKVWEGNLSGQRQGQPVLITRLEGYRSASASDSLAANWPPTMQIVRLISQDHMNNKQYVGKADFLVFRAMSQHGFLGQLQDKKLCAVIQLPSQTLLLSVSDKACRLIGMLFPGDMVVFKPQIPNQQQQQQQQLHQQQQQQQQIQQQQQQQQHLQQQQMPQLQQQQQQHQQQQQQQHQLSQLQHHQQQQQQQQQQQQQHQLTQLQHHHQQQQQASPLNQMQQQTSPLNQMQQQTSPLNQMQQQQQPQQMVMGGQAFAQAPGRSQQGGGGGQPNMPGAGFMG", "test": "Yeast two-hybrid analysis of MED25 (bait) interaction with wild-type MYC3 and MYC3 point mutants (prey)", "format": "binding", "details": "MYC3 variant prey", "method": "as §1"}}}
{"substance": "wild-type MYC3: Arabidopsis thaliana MYC3 sequence, SEQ ID NO:3", "values": [{"measurement": "5-MT resistance", "setting": "Arabidopsis", "value": "not"}]}
{"substance": "MYC3^D94N: dominant MYC3 variant (atr2D allele), Asp-to-Asn missense mutation in the JAZ-interacting domain", "values": [{"measurement": "5-MT resistance", "setting": "Arabidopsis", "value": "confers 5-MT resistance"}, {"measurement": "interaction with most JAZ proteins", "setting": "JAZ proteins", "value": "fail to interact"}]}
{"substance": "wild type MYC2: Arabidopsis thaliana MYC2 sequence, SEQ ID NO:1 [reference compound]", "values": [{"measurement": "primary root length", "setting": "phyB-9 mutant plants", "value": "improves primary root length"}]}
{"substance": "tomato MYC2 D132N: tomato (Solanum lycopersicum) MYC2 protein with SEQ ID NO:19 modified to have a D132N mutation", "values": [{"measurement": "resistance to 5-MT", "setting": "Arabidopsis; tomato MYC2 variant overexpressed in Arabidopsis, data not shown", "value": "confers resistance"}]}
{"substance": "MYC2^D105N/E165K: MYC2 mutant allele that harbors two point mutations (D105N and E165K) that prevent JAZ binding", "values": [{"measurement": "primary root length", "setting": "phyB-9 mutant plants", "value": "best primary root growth"}]}
{"substance": "MYC3^E148A/M155A", "values": [{"measurement": "JAZ10.4 interaction", "setting": "JAZ10.4", "value": "strongly reduced"}, {"measurement": "MED25 interaction", "setting": "MED25", "value": "still interacted"}]}
{"substance": "MYC3^L152A", "values": [{"measurement": "JAZ10.4 interaction", "setting": "JAZ10.4", "value": "strongly reduced"}, {"measurement": "MED25 interaction", "setting": "MED25", "value": "still interacted"}]}
